Experimental data reported in patent US10624880B2, “Predicting response to alvocidib by mitochondrial profiling” (Tolero Pharmaceuticals, Inc., priority 2015, dated 2020).

How the values were obtained:
MV-4-11 cells = assay: 24 hour EC50 in MV-4-11 cells; assay type: cell-based; settings: Homo sapiens, MV4-11, read-out: 24 hour EC 50
Excerpt: (§1) Following the treatment, cells were harvested and prepared using standard immunoblotting techniques for detection of MCL-1.

MCL-1 mRNA in A549 cells = assay: RT-PCR of MCL-1 mRNA in A549 cells; assay type: cell-based, human; settings: A549, alvocidib 0-8 μM, 2 hrs, FIG. 8
Description: The A549 cell line is a human adenocarcinoma cell line, which expresses MCL-1. […] A549 cells were treated with alvocidib for 2 hrs in vitro. Following treatment, cells were harvested and prepared using a standard RT-PCR assay for detection of MCL-1 mRNA to probe for changes relative to controls.

MCL-1 in MV-4-11 cells = assay: MCL-1 immunoblotting in the ACM (or FLAM) regimen modeled in vitro; assay type: cell-based
Excerpt: as §1

[1] = system: MCL-1 mRNA in MV-4-11 cells; assay: RT-PCR of MCL-1 mRNA in MV-4-11 cells; assay type: cell-based
Description: An AML cell line, MV-4-11, expresses MCL-1. MCL-1 is a key anti-apoptotic protein in MV-4-11 cells. Alvocidib, a CDK9 inhibitor, lowers the expression of MCL-1 mRNA, which is already well documented in the literature. […] MV-4-11 cells were treated with alvocidib for 2 hrs in vitro. Following treatment, cells were harvested and prepared using a standard real time PCR (RT-PCR) assay for detection of MCL-1 mRNA to probe for changes relative to controls.
The relative expression of MCL-1 mRNA was measured at 0.5-16 hour time points after dosing with 100 nM of alvocidib.
Following treatment, cells were harvested and prepared using standard RT-PCR assay for detection of MCL-1 mRNA expression.

[2] = system: MCL-1, Bcl-xL, and Bcl-2 in A549 cells; assay: Immunoblotting of MCL-1, Bcl-xL, Bcl-2 in A549 cells; assay type: cell-based, human; settings: A549, 350 nM
Description: The relative expression of MCL-1, Bcl-xL, and Bcl-2 was measured at 0-96 hour time points after dosing with 350 nM of alvocidib. In one group, after 24 hours of treatment, media was removed and replaced with fresh media […] (i.e., a wash step; see FIG. 9A).
A549 cells were treated with 350 nM alvocidib in vitro for the times indicated in FIG. 9A-B. Following treatment (and wash step as applicable), cells were harvested and prepared using standard immunoblotting techniques for detection of MCL-1, Bcl-xL, and Bcl-2 expression.
The relative expression of MCL-1, Bcl-xL, and Bcl-2 was measured at 0-96 hour time points after dosing with 350 nM of alvocidib.
Cells were treated 3 times (three 24 hour periods, broken by two 24 hour breaks) with 350 nM alvocidib in vitro. Following treatment, cells were harvested and prepared using standard immunoblotting techniques for detection of MCL-1, Bcl-xL, and Bcl-2 expression.

N-Myc in SK-N-AS cells = assay: Immunoblotting of N-Myc in SK-N-AS cells; assay type: cell-based, human; settings: 300 nM, 1-24 hour, FIG. 11
Description: The SK-N-AS cell line is a human neuroblastoma cell line that expresses N-Myc, which is a key oncogenic protein. […] The time dependence is observed by monitoring the relative expression of N-Myc compared β-actin over time. The relative expression of N-Myc was measured at 1-24 hour time points after dosing with 300 nM of alvocidib.
Following treatment, cells were harvested and prepared using standard immunoblotting techniques for detection of N-Myc expression.

[3] = system: MCL-1, Bcl-xL, and Bcl-2 in MV-4-11 cells; assay: Immunoblotting of MCL-1, Bcl-xL, Bcl-2 in MV-4-11 cells; assay type: cell-based
Description: The dose dependence is observed by monitoring the relative expression of MCL-1 compared to β-actin when cells are dosed with alvocidib at concentrations of 0-8 μM. MV4-11 cells were treated with alvocidib for 2 hrs in vitro. Following treatment, cells were harvested and prepared using standard immunoblotting techniques for detection of MCL-1 to probe for changes relative to β-actin.
The time dependence is observed by monitoring the relative expression of MCL-1, Bcl-xL, and Bcl-2 compared β-actin over time. The relative expression of MCL-1, Bcl-xL, and Bcl-2 was measured at 1-96 hour time points after dosing with 80 nM of alvocidib.
Following treatment, cells were harvested and prepared using standard immunoblotting techniques for detection of MCL-1, Bcl-xL, and Bcl-2 expression.

[4] = system: MCL-1, Bcl-xL, and Bcl-2 in Panc-1 cells; assay: Immunoblotting of MCL-1, Bcl-xL, Bcl-2 in Panc-1 cells; assay type: cell-based, human; settings: Panc-1, 730 nM
Description: The time dependence is observed by monitoring the relative expression of MCL-1, Bcl-xL, and Bcl-2 compared β-actin over time. The relative expression of MCL-1, Bcl-xL, and Bcl-2 was measured at 0-96 hour time points after dosing with 730 nM of alvocidib. In one group, after 24 hours of treatment, media was removed and replaced with fresh media containing 730 nM alvocidib (i.e., a wash step; see FIG. 13A). Panc-1 cells were treated with 730 nM alvocidib in vitro for the times indicated in FIG. 13A-B. Following treatment (and wash step as applicable), cells were harvested and prepared using standard immunoblotting techniques for detection of MCL-1, Bcl-xL, and Bcl-2 expression. […] The time dependence is observed by monitoring the relative expression of MCL-1, Bcl-xL, and Bcl-2 compared β-actin over time. The relative expression of MCL-1, Bcl-xL, and Bcl-2 was measured at 0-96 hour time points after dosing with 730 nM of alvocidib. Cells were treated 3 times (three 24 hour periods, broken by two 24 hour breaks) with 730 nM alvocidib in vitro. Following treatment, cells were harvested and prepared using standard immunoblotting techniques for detection of MCL-1, Bcl-xL, and Bcl-2 expression.

[5] = system: MCL-1, Bcl-xL, and Bcl-2 in Yugen8 cells; assay: Immunoblotting of MCL-1, Bcl-xL, Bcl-2 in Yugen8 cells; assay type: cell-based; settings: Yugen8, 280 nM
Description: The time dependence is observed by monitoring the relative expression of MCL-1, Bcl-xL, and Bcl-2 compared β-actin over time. The relative expression of MCL-1, Bcl-xL, and Bcl-2 was measured at 0-96 hour time points after dosing with 280 nM of alvocidib. In one group, after 24 hours of treatment, media was removed and replaced with fresh media containing 280 nM alvocidib (i.e., a wash step; see FIG. 15A). Yugen8 cells were treated with 280 nM alvocidib in vitro for the times indicated in FIG. 15A-B. Following treatment (and wash step as applicable), cells were harvested and prepared using standard immunoblotting techniques for detection of MCL-1, Bcl-xL, and Bcl-2 expression. […] The time dependence is observed by monitoring the relative expression of MCL-1, Bcl-xL, and Bcl-2 compared β-actin over time. The relative expression of MCL-1, Bcl-xL, and Bcl-2 was measured at 0-96 hour time points after dosing with 280 nM of alvocidib. Cells were treated 3 times (three 24 hour periods, broken by two 24 hour breaks) with 280 nM alvocidib in vitro. Following treatment, cells were harvested and prepared using standard immunoblotting techniques for detection of MCL-1, Bcl-xL, and Bcl-2 expression.

Row | Structure (SMILES) | EC50 (MV-4-11 cells) | relative expression of MCL-1 mRNA compared to controls (MCL-1 mRNA in A549 cells) | relative expression of MCL-1 compared to β-actin (MCL-1 in MV-4-11 cells; MV-4-11, each treatment dosed at its 24 hour EC50, FIG. 17B) | expression of MCL-1 over the course of the ACM (or FLAM) regimen (MCL-1 in MV-4-11 cells; modeled in vitro, MV-4-11, FIG. 17A) | time post-treatment at which MCL-1 mRNA expression was reduced ([1]; MV-4-11, 100 nM) | relative expression of MCL-1 mRNA compared controls over time ([1]; MV-4-11, 100 nM, 0.5-16 hour, FIG. 7B) | relative expression of MCL-1 mRNA compared to controls ([1]; MV-4-11, alvocidib 0-8 μM, 2 hrs, FIG. 7A) | relative expression of MCL-1, Bcl-xL, and Bcl-2 compared β-actin over time ([2]; 0-96 hour, with and without wash step, FIG. 9A-B) | relative expression of MCL-1, Bcl-xL, and Bcl-2 compared β-actin over time ([2]; repeat dosing (three 24 hour periods, two 24 hour breaks), FIG. 12) | relative expression of N-Myc compared β-actin over time (N-Myc in SK-N-AS cells) | relative expression of MCL-1, Bcl-xL, and Bcl-2 compared β-actin over time ([3]; MV-4-11, 80 nM, 1-96 hour, FIG. 10B) | relative expression of MCL-1 compared to β-actin ([3]; MV-4-11, alvocidib 0-8 μM, 2 hrs, FIG. 10A) | relative expression of MCL-1, Bcl-xL, and Bcl-2 compared β-actin over time ([4]; 0-96 hour, with and without wash step, FIG. 13A-B) | relative expression of MCL-1, Bcl-xL, and Bcl-2 compared β-actin over time ([4]; repeat dosing regimen, FIG. 14) | relative expression of MCL-1, Bcl-xL, and Bcl-2 compared β-actin over time ([5]; 0-96 hour, with and without wash step, FIG. 15A-B) | relative expression of MCL-1, Bcl-xL, and Bcl-2 compared β-actin over time ([5]; repeat dosing regimen, FIG. 16)
1 | CC(=O)c1c(C)c2cnc(Nc3ccc(N4CCNCC4)cn3)nc2n(C2CCCC2)c1=O [palbociclib] | 1000 nM | – | – | – | – | – | – | – | – | – | – | – | – | – | – | –
2 | CN1CC[C@H](c2c(O)cc(O)c3c(=O)cc(-c4ccccc4Cl)oc23)[C@H](O)C1 [alvocidib] | 80 nM | down-regulates MCL-1 mRNA in A549 cells in a dose dependent manner | lower the expression of MCL-1 | represses super enhancer complex regulated genes, including expression of MCL-1 | ≤ 30 min | down-regulates MCL-1 mRNA in MV-4-11 in a time-dependent manner | down-regulates MCL-1 mRNA in MV-4-11 cells in a dose dependent manner | down-regulates MCL-1 in A549 in a time-dependent manner | down-regulates MCL-1 in A549 cells in a time-dependent manner | down-regulates N-Myc in SK-N-AS cells in a time-dependent manner | down-regulates MCL-1 in MV-4-11 in a time-dependent manner | down-regulates MCL-1 in MV-4-11 cells in a dose dependent manner | down-regulates MCL-1 in Panc-1 cells in a time dependent manner | down-regulates MCL-1 in Panc-1 cells in a time-dependent manner | down-regulates MCL-1 in Yugen8 cells in a time dependent manner | down-regulates MCL-1 in Yugen8 in a time-dependent manner
